Measured values as given in patent US20220273813A1, “PHOTOSENSITIZER-CONJUGATED ANTIMICROBIAL CELLULOSE NANOCRYSTALS AND METHODS OF SYNTHESIZING AND USING SAME” (HNU MATERIALS INC., priority 2019, published 2022).

Columns and labels:
E. coli (ATCC25922) = experiment: Photobactericidal activity, CFU count, E. coli; settings: 20 min ambient light (LED); concentration matched to absorption of 8 mg/L CNC-AA
Description: In the experimental set-up, the viability of bacteria as a response to intensity of white light exposure and concentration of disinfectant was monitored. This was carried out by calculating the number of bacterial colonies present in solution before and after exposure.
According to the experimental protocol, a suspension of cells (2.6×10^8 cells/ml ±0.5 log) was treated with either AA, CNC or CNC+AA or CNC-AA or PBS (untreated control) at different concentration (FIGS. 7-9). For each set of conditions, the initial culture was equally divided into two. One part was light treated while the other was kept in the dark. After different time periods (FIGS. 7-9), bactericidal activity was quantified by counting colony forming units (CFU) on agar plates. […] Comparison of the number of CFUs in the treated samples (AA, CNC, CNC+AA and CNC-AA) to untreated (PBS) placed under light, enabled the inventors to quantify the specific photo-bactericidal activity of the test agents. Killing effect was calculated using the following expression (equation 2).
Killing=Log 10(#CFUUntreated)−Log 10(CFUtreated) (2)

P. aeruginosa biofilms = tested on: P. aeruginosa biofilms; parameters: dose or concentration left out as unconfirmed; settings: combined with laser irradiation at specific wavelengths; cited from earlier work

SMILES	toxicity against E. coli (E. coli (ATCC25922))	concentration necessary to eradicate P. aeruginosa biofilms (P. aeruginosa biofilms)
CN(C)c1ccc2nc3ccc(N)cc3[s+]c2c1.[Cl-] [AA, azure A]	significantly reduced compared to CNC-AA	–
CN(C)c1ccc2nc3ccc(=[N+](C)C)cc-3sc2c1 [methylene blue]	–	0.01 % wt/wt
